Test results as given in publication PMC7756412 (2020).

Tests used:
[1] = test system: Myc-dup5 (DNA, G4) GATCAGTTTTACTGATCGGGTGGGTAGGGTGGGTA; assay: NMR titration, chemical shift perturbation; details: K+ (10 mM potassium phosphate); pH 7.0, 20 °C; 5' quadruplex-duplex junction; ITC isotherm not reliably fitted (Ka n.d.)
[2] = test system: Myc3l-dup5 (DNA, G4) GATCAGTTTTACTGATCGGGTGGTGGGTGGGGAAGG; assay: ITC, two-site fit; details: 120 mM K+; 100 mM KCl, 20 mM potassium phosphate pH 7.0, 5% DMSO, 40 °C; high-affinity site
[3] = test system: Myc-dup3 (DNA, G4) TGAGGGTGGGTAGGGTGGGCTAGTCATTTTGACTAG; assay: UV melting, 260 nm; details: 120 mM Na+; 100 mM NaCl, 20 mM sodium phosphate pH 7; 1 equiv PIQ; duplex domain; derived from two Tm (63.6, 70.8)
[4] = test system: Myc-dup5 (DNA, G4) GATCAGTTTTACTGATCGGGTGGGTAGGGTGGGTA; assay: UV melting, 260 nm; details: 120 mM Na+; 100 mM NaCl, 20 mM sodium phosphate pH 7; 1 equiv PIQ; duplex domain; derived from two Tm (67.8, 73.5)
[5] = test system: Myc-dup5 (DNA, G4) GATCAGTTTTACTGATCGGGTGGGTAGGGTGGGTA; assay: CD melting, 265 nm; details: 120 mM Na+; 100 mM NaCl, 20 mM sodium phosphate pH 7; 5 µM DNA, 1 equiv PIQ; quadruplex domain; 53.2 to 69.7 °C
[6] = test system: Myc-dup3 (DNA, G4) TGAGGGTGGGTAGGGTGGGCTAGTCATTTTGACTAG; assay: ITC, two-site fit; details: 120 mM K+; 100 mM KCl, 20 mM potassium phosphate pH 7.0, 5% DMSO, 40 °C; high-affinity site
[7] = test system: Myc3l-dup5 (DNA, G4) GATCAGTTTTACTGATCGGGTGGTGGGTGGGGAAGG; assay: UV melting, 260 nm; details: 120 mM Na+; 100 mM NaCl, 20 mM sodium phosphate pH 7; 1 equiv PIQ; duplex domain; derived from two Tm (69.5, 76.1)
[8] = test system: Myc3l-dup5 (DNA, G4) GATCAGTTTTACTGATCGGGTGGTGGGTGGGGAAGG; assay: CD melting, 265 nm; details: 120 mM Na+; 100 mM NaCl, 20 mM sodium phosphate pH 7; 1 equiv PIQ; quadruplex domain; derived from two Tm (66.3, 73.8)
[9] = test system: Myc-dup3 (DNA, G4) TGAGGGTGGGTAGGGTGGGCTAGTCATTTTGACTAG; assay: CD melting, 265 nm; details: 120 mM Na+; 100 mM NaCl, 20 mM sodium phosphate pH 7; 5 µM DNA, 1 equiv PIQ; quadruplex domain; 44.7 to 68.2 °C

**Q.** With `CCN(CC)CCCNC(=O)c1ccc(-c2c3cccc(C)c3[n+](C)c3c2[nH]c2c(C)cccc23)cc1` as the molecule, how does the binding [1] read?
**A.** yes

**Q.** And the Ka [2]?
**A.** (1.6±0.2)×10^7 M^-1

**Q.** What about the ΔTm [3] of the same molecule?
**A.** 7.2 °C

**Q.** What about the ΔTm [4] of the same molecule?
**A.** 5.7 °C

**Q.** And the ΔTm [5]?
**A.** 17 °C

**Q.** What about the Ka [6] of the same molecule?
**A.** (1.6±0.4)×10^7 M^-1

**Q.** And the ΔTm [7]?
**A.** 6.6 °C

**Q.** What about the ΔTm [8] of the same molecule?
**A.** 7.5 °C

**Q.** What about the ΔTm [9] of the same molecule?
**A.** 23 °C
